Reference: publication PMC12086093 (Nature Structural & Molecular Biology, 2025)

How the values were obtained:
[1] = molecular target: T1, AasS (Vibrio harveyi, UniProt Q00IB3); assay: cryo-EM structure; assay type: binding; conditions: 2 mM MgCl2, 5 mM AMP-PNP; tetramer; ATP site
T1 sequence (Q00IB3 1-533): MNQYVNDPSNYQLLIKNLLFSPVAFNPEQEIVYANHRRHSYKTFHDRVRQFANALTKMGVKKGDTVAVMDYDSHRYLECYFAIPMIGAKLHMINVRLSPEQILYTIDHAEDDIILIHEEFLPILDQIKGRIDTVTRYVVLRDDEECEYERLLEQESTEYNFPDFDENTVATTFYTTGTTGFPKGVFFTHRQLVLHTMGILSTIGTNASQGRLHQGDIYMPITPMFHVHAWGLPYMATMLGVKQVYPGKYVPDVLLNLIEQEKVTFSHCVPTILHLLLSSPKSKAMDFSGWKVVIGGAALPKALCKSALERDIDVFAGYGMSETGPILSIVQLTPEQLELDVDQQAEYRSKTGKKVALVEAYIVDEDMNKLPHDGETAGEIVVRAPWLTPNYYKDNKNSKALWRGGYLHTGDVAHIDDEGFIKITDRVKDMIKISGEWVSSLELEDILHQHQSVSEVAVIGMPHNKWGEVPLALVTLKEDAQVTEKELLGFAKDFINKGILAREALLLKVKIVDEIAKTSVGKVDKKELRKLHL

[2] = molecular target: T1, AasS; assay: cryo-EM structure; assay type: binding; conditions: 1.5 mM ATP, no Mg2+; hexamer; phosphate density not continuous
[3] = molecular target: T1, AasS; assay: ITC, one set of sites; assay type: binding
[4] = molecular target: the molecule itself; assay: SEC

Question: How did the “cryo-EM structure (2.68 Å)” value [1] turn out when `Nc1ncnc2c1ncn2[C@@H]1O[C@H](COP(=O)(O)OP(=O)(O)NP(=O)(O)O)[C@@H](O)[C@H]1O` [AMP-PNP] was run?
Answer: The value was “continuous density for the bound AMP-PNP cofactor”.

Question: Which “cryo-EM structure (2.45 Å)” value [2] does the source give for `Nc1ncnc2c1ncn2[C@@H]1O[C@H](COP(=O)(O)OP(=O)(O)OP(=O)(O)O)[C@@H](O)[C@H]1O` [ATP] here?
Answer: Its value is “the cryo-EM structure of ATP-liganded AasS remains a hexamer ring”.

Question: With `CCOC(=O)CCCCCC(=O)O` [E-pim] as the molecule, how does the Kd [3] read?
Answer: Its Kd is about 6.45 µM.

B1: Vibrio harveyi acyl-ACP synthetase AasS, recombinant with an N-terminal 6xHis-tag (enzyme, UniProt Q00IB3 1-533, looked up)
chain: T1 sequence (Q00IB3 1-533)
Question: Which “stoichiometry N” value [4] does the source give for B1 here?
Answer: Its value is 6.
